# Experimental data taken from PubChem BioAssay AID192 (DTP/NCI, 2004).
# “And” between values parts separate entries of the source, which are not always exact repeats. Equal values may be shown once. Toxic doses and inconclusive results are not listed.
# System: BDF1 mice, B16 melanoma ip, median survival T/C
# Experiment: NCI In Vivo Anticancer Drug Screen. Data for tumor model B16 Melanoma (intraperitoneal) in B6D2F1 (BDF1) mice
# Details: endpoint: median survival time, higher = longer survival
# Method in brief: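 Tumor-bearing mice received test compound or vehicle. Survival or tumor size was then measured in both groups. The treated-group figure was divided by the control-group figure.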
# [1] = dose: 100.0 mg/kg/injection, schedule: Q01DX009 (ip), vehicle: Klucel (hydroxypropylcellulose) (HPC)
# [2] = dose: 25.0 mg/kg/injection, schedule: Q01DX009 (ip), vehicle: saline with Tween-80
# [3] = dose: 50.0 mg/kg/injection, schedule: Q01DX009 (ip), vehicle: saline with Tween-80
# [4] = dose: 100.0 mg/kg/injection, schedule: Q01DX009 (ip), vehicle: saline
# [5] = dose: 200.0 mg/kg/injection, schedule: Q01DX009 (ip), vehicle: saline
# [6] = dose: 12.5 mg/kg/injection, schedule: Q04DX003 (ip), vehicle: saline
# [7] = dose: 25.0 mg/kg/injection, schedule: Q04DX003 (ip), vehicle: saline
# [8] = dose: 50.0 mg/kg/injection, schedule: Q04DX003 (ip), vehicle: saline
# [9] = dose: 400.0 mg/kg/injection, schedule: Q04DX003 (ip), vehicle: Klucel (hydroxypropylcellulose) (HPC)
# [10] = dose: 100.0 mg/kg/injection, schedule: Q01DX009 (ip), vehicle: saline with Tween-80
# [11] = dose: 25.0 mg/kg/injection, schedule: Q01DX009 (ip), vehicle: saline
compound,measurement,setting,value
COC(=O)[C@@]12OC[C@]34[C@H]([C@@H](O)[C@@H]1O)[C@@]1(C)CC(=O)C(O)=C(C)[C@@H]1C[C@H]3OC(=O)[C@H](OC(=O)/C=C(\C)C(C)C)[C@@H]24,T/C,"dose: 0.03 mg/kg/injection, schedule: Q01DX009 (ip), vehicle: saline + alcohol",122 % of control
same,T/C,"dose: 0.12 mg/kg/injection, schedule: Q01DX009 (ip), vehicle: other",169 % of control
same,T/C,"dose: 0.12 mg/kg/injection, schedule: Q01DX009 (ip), vehicle: saline + alcohol",153 % of control
same,T/C,"dose: 0.25 mg/kg/injection, schedule: Q01DX009 (ip), vehicle: other",155 % of control
same,T/C,"dose: 0.25 mg/kg/injection, schedule: Q01DX009 (ip), vehicle: saline + alcohol",154 % of control
same,T/C,"dose: 0.5 mg/kg/injection, schedule: Q01DX009 (ip), vehicle: other",160 % of control
same,T/C,"dose: 0.5 mg/kg/injection, schedule: Q01DX009 (ip), vehicle: saline + alcohol",154 % of control and 157 % of control
same,T/C,"dose: 1.0 mg/kg/injection, schedule: Q01DX009 (ip), vehicle: other",164 % of control
same,T/C,"dose: 1.0 mg/kg/injection, schedule: Q01DX009 (ip), vehicle: saline + alcohol",158 % of control and 164 % of control
same,T/C,"dose: 2.0 mg/kg/injection, schedule: Q01DX009 (ip), vehicle: saline + alcohol",177 % of control
same,T/C,"dose: 125.0 micrograms/kg/injection, schedule: Q01DX009 (ip), vehicle: saline + alcohol",160 % of control
same,T/C,"dose: 250.0 micrograms/kg/injection, schedule: Q01DX009 (ip), vehicle: saline + alcohol",160 % of control
same,T/C,"dose: 500.0 micrograms/kg/injection, schedule: Q01DX009 (ip), vehicle: saline + alcohol",168 % of control
same,T/C,"dose: 1000.0 micrograms/kg/injection, schedule: Q01DX009 (ip), vehicle: saline + alcohol",164 % of control
same,T/C,"dose: 2000.0 micrograms/kg/injection, schedule: Q01DX009 (ip), vehicle: saline + alcohol",97 % of control
O=C(NC1CCCCC1)Oc1ccccc1-c1ccccc1,T/C,[1],88 % of control
same,T/C,"dose: 400.0 mg/kg/injection, schedule: Q01DX009 (ip), vehicle: Klucel (hydroxypropylcellulose) (HPC)",100 % of control
O=C(O)COc1ccc(OCC(=O)O)cc1,T/C,"dose: 0.75 mg/kg/injection, schedule: Q01DX009 (ip), vehicle: Klucel (hydroxypropylcellulose) (HPC)",89 % of control
same,T/C,"dose: 1.5 mg/kg/injection, schedule: Q01DX009 (ip), vehicle: Klucel (hydroxypropylcellulose) (HPC)",89 % of control
Cc1cc(N)c2cc(NC(=O)CCCCCC(=O)Nc3ccc4nc(C)cc(N)c4c3)ccc2n1,T/C,"dose: 12.5 mg/kg/injection, schedule: Q01DX009 (ip), vehicle: saline with Tween-80",90 % of control
same,T/C,[2],98 % of control
same,T/C,[3],110 % of control
CS(=O)(=O)O,T/C,[4],106 % of control
same,T/C,[5],113 % of control
same,T/C,"dose: 400.0 mg/kg/injection, schedule: Q01DX009 (ip), vehicle: saline",123 % of control
CC(Cc1ccc2c(c1)OCO2)C(C)Cc1ccc2c(c1)OCO2 (centres undefined),T/C,"dose: 100.0 mg/kg/injection, schedule: Q01DX009 (ip), vehicle: other",94 % of control
same,T/C,"dose: 200.0 mg/kg/injection, schedule: Q01DX009 (ip), vehicle: other",89 % of control
same,T/C,"dose: 400.0 mg/kg/injection, schedule: Q01DX009 (ip), vehicle: other",89 % of control
CNC(=S)N/N=C1/c2cc(Cl)ccc2-c2c(Cl)cc(Cl)cc21,T/C,"dose: 6.25 mg/kg/injection, schedule: Q01DX009 (ip), vehicle: saline with Tween-80",91 % of control
CC1NC(=O)COC1c1ccccc1 (centres undefined),T/C,"dose: 12.5 mg/kg/injection, schedule: Q01DX009 (ip), vehicle: Klucel (hydroxypropylcellulose) (HPC)",95 % of control
same,T/C,[6],95 % of control
same,T/C,"dose: 25.0 mg/kg/injection, schedule: Q01DX009 (ip), vehicle: Klucel (hydroxypropylcellulose) (HPC)",95 % of control
same,T/C,[7],92 % of control
same,T/C,"dose: 50.0 mg/kg/injection, schedule: Q01DX009 (ip), vehicle: Klucel (hydroxypropylcellulose) (HPC)",102 % of control
same,T/C,[8],97 % of control
same,T/C,[1],97 % of control
same,T/C,"dose: 100.0 mg/kg/injection, schedule: Q04DX003 (ip), vehicle: saline",95 % of control
same,T/C,"dose: 200.0 mg/kg/injection, schedule: Q04DX003 (ip), vehicle: saline",97 % of control
COc1ccc(/C=C(\C)[N+](=O)[O-])cc1OC,T/C,"dose: 12.5 mg/kg/injection, schedule: Q01DX009 (ip), vehicle: other",88 % of control
same,T/C,"dose: 25.0 mg/kg/injection, schedule: Q01DX009 (ip), vehicle: other",93 % of control
Cc1cc(C)c(CN)cc1CN,T/C,[2],108 % of control
same,T/C,[3],112 % of control
O/N=C1\CCCC\C1=N/O.O/N=C1\CCCC\C1=N/O.[Pd],T/C,"dose: 25.0 mg/kg/injection, schedule: Q04DX003 (ip), vehicle: other",101 % of control
same,T/C,"dose: 50.0 mg/kg/injection, schedule: Q04DX003 (ip), vehicle: other",91 % of control
same,T/C,"dose: 100.0 mg/kg/injection, schedule: Q04DX003 (ip), vehicle: other",93 % of control
Cc1noc(/N=C/c2cccc(Cl)c2)c1C,T/C,"dose: 175.0 mg/kg/injection, schedule: Q04DX003 (ip), vehicle: Klucel (hydroxypropylcellulose) (HPC)",107 % of control
same,T/C,"dose: 265.0 mg/kg/injection, schedule: Q04DX003 (ip), vehicle: Klucel (hydroxypropylcellulose) (HPC)",116 % of control
same,T/C,[9],109 % of control
same,T/C,"dose: 600.0 mg/kg/injection, schedule: Q04DX003 (ip), vehicle: Klucel (hydroxypropylcellulose) (HPC)",107 % of control
O=C1C=CC(=O)c2c(O)c(CO)c(CO)c(O)c21,T/C,"dose: 0.39 mg/kg/injection, schedule: Q01DX009 (ip), vehicle: Klucel (hydroxypropylcellulose) (HPC)",98 % of control
same,T/C,"dose: 0.78 mg/kg/injection, schedule: Q01DX009 (ip), vehicle: Klucel (hydroxypropylcellulose) (HPC)",89 % of control
same,T/C,"dose: 1.56 mg/kg/injection, schedule: Q01DX009 (ip), vehicle: Klucel (hydroxypropylcellulose) (HPC)",87 % of control
CCOC(=O)NC(C)(C)CN(CCO)C(=O)OCC,T/C,"dose: 100.0 mg/kg/injection, schedule: Q04DX003 (ip), vehicle: Klucel (hydroxypropylcellulose) (HPC)",102 % of control
same,T/C,[9],100 % of control
c1cncc(C2OCCO2)c1,T/C,[10],98 % of control
same,T/C,"dose: 200.0 mg/kg/injection, schedule: Q01DX009 (ip), vehicle: saline with Tween-80",89 % of control
same,T/C,"dose: 400.0 mg/kg/injection, schedule: Q01DX009 (ip), vehicle: saline with Tween-80",89 % of control
CC(=O)NC(CC(C)C)C(=O)O (centres undefined),T/C,[2],108 % of control
same,T/C,[3],121 % of control
same,T/C,[10],101 % of control
COc1ccc2c(ccc[n+]2C)c1,T/C,"dose: 6.25 mg/kg/injection, schedule: Q01DX009 (ip), vehicle: saline",93 % of control
same,T/C,"dose: 12.5 mg/kg/injection, schedule: Q01DX009 (ip), vehicle: saline",90 % of control
same,T/C,[6],100 % of control
same,T/C,[11],95 % of control
same,T/C,[7],100 % of control
same,T/C,[8],104 % of control
N[C@H](C(=O)O)[C@H]1ON=C(Cl)[C@@H]1O,T/C,"dose: 4.0 mg/kg/injection, schedule: Q01DX009 (ip), vehicle: saline",90 % of control
same,T/C,"dose: 8.0 mg/kg/injection, schedule: Q01DX009 (ip), vehicle: saline",94 % of control
same,T/C,"dose: 16.0 mg/kg/injection, schedule: Q01DX009 (ip), vehicle: saline",103 % of control
same,T/C,"dose: 32.0 mg/kg/injection, schedule: Q01DX009 (ip), vehicle: saline",106 % of control
same,T/C,"dose: 64.0 mg/kg/injection, schedule: Q01DX009 (ip), vehicle: saline",102 % of control and 115 % of control
same,T/C,"dose: 128.0 mg/kg/injection, schedule: Q01DX009 (ip), vehicle: saline",101 % of control
same,T/C,"dose: 256.0 mg/kg/injection, schedule: Q01DX009 (ip), vehicle: saline",107 % of control
same,T/C,"dose: 512.0 mg/kg/injection, schedule: Q01DX009 (ip), vehicle: saline",109 % of control
CCCCCCCCCCCCCCCCCCNC(=O)Nc1ccccc1CC,T/C,[3],86 % of control
O=C(O)c1cc(O)ccc1O,T/C,[11],93 % of control
same,T/C,"dose: 50.0 mg/kg/injection, schedule: Q01DX009 (ip), vehicle: saline",100 % of control
same,T/C,[4],102 % of control
same,T/C,[5],98 % of control
